Laboratory results from PubChem BioAssay AID248 (DTP/NCI, 2004).
Toxic doses and inconclusive results are not listed. Cut-off read from the data, not from the text of the source: active = T/C of 150% or more; inactive = T/C below 125%.

Test system: L1210 leukemia ip in BDF1 mice, survival T/C
Assay: NCI In Vivo Anticancer Drug Screen. Data for tumor model L1210 Leukemia (intraperitoneal) in B6D2F1 (BDF1) mice
Conditions: endpoint: mean survival time, higher = longer survival
Method in brief: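 Tumor was transplanted into mice, which were then dosed with test compound or vehicle alone. Survival was recorded for each group, and the treated figure was expressed relative to the control figure.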

[1] = dose: 12.5 mg/kg/injection, schedule: Q01DX009 (ip), vehicle: saline
[2] = dose: 25.0 mg/kg/injection, schedule: Q01DX009 (ip), vehicle: saline
[3] = dose: 50.0 mg/kg/injection, schedule: Q01DX009 (ip), vehicle: saline
[4] = dose: 25.0 mg/kg/injection, schedule: Q01DX001 (ip), vehicle: saline
[5] = dose: 50.0 mg/kg/injection, schedule: Q01DX001 (ip), vehicle: saline
[6] = dose: 100.0 mg/kg/injection, schedule: Q01DX009 (ip), vehicle: saline with Tween-80
[7] = dose: 100.0 mg/kg/injection, schedule: Q04DX003 (ip), vehicle: saline with Tween-80
[8] = dose: 200.0 mg/kg/injection, schedule: Q01DX009 (ip), vehicle: saline with Tween-80
[9] = dose: 200.0 mg/kg/injection, schedule: Q04DX003 (ip), vehicle: saline with Tween-80
[10] = dose: 400.0 mg/kg/injection, schedule: Q01DX009 (ip), vehicle: saline with Tween-80
[11] = dose: 100.0 mg/kg/injection, schedule: Q01DX001 (ip), vehicle: saline
[12] = dose: 200.0 mg/kg/injection, schedule: Q01DX001 (ip), vehicle: saline
[13] = dose: 400.0 mg/kg/injection, schedule: Q01DX001 (ip), vehicle: saline
[14] = dose: 100.0 mg/kg/injection, schedule: Q01DX009 (ip), vehicle: saline
[15] = dose: 100.0 mg/kg/injection, schedule: Q04DX003 (ip), vehicle: saline
[16] = dose: 200.0 mg/kg/injection, schedule: Q01DX009 (ip), vehicle: saline
[17] = dose: 200.0 mg/kg/injection, schedule: Q04DX003 (ip), vehicle: saline
[18] = dose: 400.0 mg/kg/injection, schedule: Q01DX009 (ip), vehicle: saline
[19] = dose: 400.0 mg/kg/injection, schedule: Q04DX003 (ip), vehicle: saline
[20] = dose: 50.0 mg/kg/injection, schedule: Q01DX009 (ip), vehicle: saline with Tween-80

Measured: T/C

COc1cc(C(=O)O)c(C(=O)O)cc1OC
inactive: dose: 12.5 mg/kg/injection, schedule: Q01DX001 (ip), vehicle: Klucel (hydroxypropylcellulose) (HPC) 104 % of control | [1] 101 % of control | dose: 25.0 mg/kg/injection, schedule: Q01DX001 (ip), vehicle: Klucel (hydroxypropylcellulose) (HPC) 108 % of control | [2] 103 % of control | dose: 50.0 mg/kg/injection, schedule: Q01DX001 (ip), vehicle: Klucel (hydroxypropylcellulose) (HPC) 101 % of control | [3] 104 % of control | dose: 75.0 mg/kg/injection, schedule: Q01DX009 (ip), vehicle: Klucel (hydroxypropylcellulose) (HPC) 97 % of control | dose: 115.0 mg/kg/injection, schedule: Q01DX009 (ip), vehicle: Klucel (hydroxypropylcellulose) (HPC) 100 % of control | dose: 170.0 mg/kg/injection, schedule: Q01DX009 (ip), vehicle: Klucel (hydroxypropylcellulose) (HPC) 100 % of control | dose: 400.0 mg/kg/injection, schedule: Q01DX001 (ip), vehicle: Klucel (hydroxypropylcellulose) (HPC) 88 % of control

OCc1cc(Cl)ccc1O
inactive: dose: 100.0 mg/kg/injection, schedule: Q01DX009 (ip), vehicle: other 91 % of control | dose: 100.0 mg/kg/injection, schedule: Q04DX003 (ip), vehicle: other 103 % of control | dose: 200.0 mg/kg/injection, schedule: Q01DX009 (ip), vehicle: other 120 % of control | dose: 200.0 mg/kg/injection, schedule: Q04DX003 (ip), vehicle: other 95 % of control | dose: 400.0 mg/kg/injection, schedule: Q04DX003 (ip), vehicle: other 93 % of control

CC1(C)N=C(N)N=C(N)N1c1ccc(OCCCCOc2ccc(S(=O)(=O)F)cc2)cc1
inactive: dose: 75.0 mg/kg/injection, schedule: Q01DX001 (ip), vehicle: Klucel (hydroxypropylcellulose) (HPC) 106 % of control | dose: 150.0 mg/kg/injection, schedule: Q01DX001 (ip), vehicle: Klucel (hydroxypropylcellulose) (HPC) 91 % of control | dose: 300.0 mg/kg/injection, schedule: Q01DX001 (ip), vehicle: Klucel (hydroxypropylcellulose) (HPC) 96 % of control

CNN=C(C)C
inactive: dose: 12.5 mg/kg/injection, schedule: Q01DX001 (ip), vehicle: saline 94 % of control | [1] 105 % of control | dose: 12.5 mg/kg/injection, schedule: Q04DX003 (ip), vehicle: saline 96 % of control | [4] 94 % of control | [2] 100 % of control | dose: 25.0 mg/kg/injection, schedule: Q04DX003 (ip), vehicle: saline 98 % of control | [5] 97 % of control | dose: 50.0 mg/kg/injection, schedule: Q04DX003 (ip), vehicle: saline 98 % of control

O=C(CN1CCOCC1)Nc1cccc(C(F)(F)F)c1
inactive: [6] 96 % of control | [7] 101 % of control | [8] 104 % of control | [9] 111 % of control | [10] 109 % of control | dose: 400.0 mg/kg/injection, schedule: Q04DX003 (ip), vehicle: saline with Tween-80 97 % of control

CC(COC(=O)c1ccc(N)cc1)NC1CCCCC1 (stereo unspecified)
inactive: dose: 75.0 mg/kg/injection, schedule: Q01DX001 (ip), vehicle: other 96 % of control | dose: 150.0 mg/kg/injection, schedule: Q01DX001 (ip), vehicle: other 102 % of control

CCCCCCCCCCOc1ccc(OC)cc1
inactive: dose: 100.0 mg/kg/injection, schedule: Q04DX002 (ip), vehicle: other 103 % of control | dose: 200.0 mg/kg/injection, schedule: Q04DX002 (ip), vehicle: other 95 % of control | dose: 400.0 mg/kg/injection, schedule: Q04DX002 (ip), vehicle: other 106 % of control

CNC(=O)n1ncc2ccc([N+](=O)[O-])cc21
inactive: [11] 107 % of control | [12] 107 % of control | [13] 102 % of control

CCOC(=O)C1OC12c1cccc3cccc(c13)C21OC1C(=O)OCC (stereo unspecified)
inactive: [6] 92 % of control | [8] 90 % of control | [10] 98 % of control

Nc1ncc(C=O)c(N)n1
inactive: dose: 6.25 mg/kg/injection, schedule: Q01DX009 (ip), vehicle: Klucel (hydroxypropylcellulose) (HPC) 113 % of control | dose: 12.5 mg/kg/injection, schedule: Q01DX009 (ip), vehicle: Klucel (hydroxypropylcellulose) (HPC) 100 % of control

CN1CCN(c2ncnc3c2ncn3C2OC(CO)C(O)C2O)CC1 (stereo unspecified)
inactive: dose: 100.0 mg/kg/injection, schedule: Q01DX005 (ip), vehicle: water 95 % of control | dose: 200.0 mg/kg/injection, schedule: Q01DX005 (ip), vehicle: water 90 % of control | dose: 400.0 mg/kg/injection, schedule: Q01DX005 (ip), vehicle: water 93 % of control

Cn1cnc(/C(N)=N\O)c1N
inactive: dose: 25.0 mg/kg/injection, schedule: Q01DX005 (ip), vehicle: saline 102 % of control | dose: 50.0 mg/kg/injection, schedule: Q01DX005 (ip), vehicle: saline 113 % of control | dose: 100.0 mg/kg/injection, schedule: Q01DX005 (ip), vehicle: saline 107 % of control

CCOC(=O)CCN1CCCC1
inactive: [14] 110 % of control | [15] 94 % of control | [16] 106 % of control | [17] 103 % of control | [18] 105 % of control | [19] 103 % of control

CCOC(=O)CP(=O)(OCC)OCC
inactive: [14] 103 % of control | [15] 109 % of control | [16] 106 % of control | [17] 102 % of control | [18] 99 % of control | [19] 113 % of control

CC(=O)CC(=O)Nc1ccc([N+](=O)[O-])cc1
inactive: [6] 97 % of control | [15] 96 % of control | [8] 111 % of control | [17] 96 % of control | [10] 102 % of control | [19] 92 % of control

N#CC(Nc1ncccn1)c1ccccc1 (stereo unspecified)
inactive: [20] 104 % of control | [6] 93 % of control | [8] 104 % of control

CCN(CC)c1ccc(SSc2ccc(N(CC)CC)cc2)cc1
inactive: [4] 105 % of control | [5] 100 % of control | [11] 100 % of control

CCCCC(CC)COP(=O)(CC(CC)CCCC)OCC(CC)CCCC (stereo unspecified)
inactive: [3] 111 % of control | [14] 107 % of control

CN(C)c1ncnc2c1ncn2C1CCC(CO)C1 (stereo unspecified)
inactive: dose: 100.0 mg/kg/injection, schedule: Q01DX001 (ip), vehicle: carboxymethylcellulose (CMC) 105 % of control | dose: 200.0 mg/kg/injection, schedule: Q01DX001 (ip), vehicle: carboxymethylcellulose (CMC) 96 % of control

CC(CO)CCC(O)C(C)C1CCC2C3CCC4CC(O)CCC4(C)C3CCC12C (stereo unspecified)
inactive: dose: 6.25 mg/kg/injection, schedule: Q01DX001 (ip), vehicle: saline with Tween-80 91 % of control | dose: 12.5 mg/kg/injection, schedule: Q01DX001 (ip), vehicle: saline with Tween-80 91 % of control | dose: 25.0 mg/kg/injection, schedule: Q01DX001 (ip), vehicle: saline with Tween-80 90 % of control | dose: 100.0 mg/kg/injection, schedule: Q01DX001 (ip), vehicle: saline with Tween-80 92 % of control | dose: 400.0 mg/kg/injection, schedule: Q01DX001 (ip), vehicle: saline with Tween-80 92 % of control

O=[N+]([O-])c1ccc(NC(=S)Nc2cc([N+](=O)[O-])ccc2Cl)cc1
inactive: [20] 98 % of control | [6] 91 % of control | [8] 91 % of control

CC(C)c1ccc(/C=C\C(=O)c2ccc(-c3ccccc3)cc2)cc1
inactive: [6] 103 % of control | dose: 100.0 mg/kg/injection, schedule: Q04DX002 (ip), vehicle: saline with Tween-80 86 % of control | [8] 106 % of control | dose: 200.0 mg/kg/injection, schedule: Q04DX002 (ip), vehicle: saline with Tween-80 101 % of control | dose: 400.0 mg/kg/injection, schedule: Q04DX002 (ip), vehicle: saline with Tween-80 101 % of control

CC(=O)Nc1cccc(-c2nnc(C3CCCC(NC(C)=O)C3)nn2)c1 (stereo unspecified)
inactive: [11] 96 % of control | [12] 88 % of control | [13] 88 % of control

CC(=O)c1cc(C)c(C)s1
inactive: dose: 12.5 mg/kg/injection, schedule: Q01DX009 (ip), vehicle: saline with Tween-80 107 % of control | dose: 25.0 mg/kg/injection, schedule: Q01DX009 (ip), vehicle: saline with Tween-80 110 % of control | [20] 100 % of control | [7] 90 % of control | [8] 86 % of control | [9] 96 % of control
